“Also recorded” adds a separate entry of the source.
Experiments:
Nfkbiz 3′UTR = Nfkbiz 3′UTR GFP reporter in BV2 cells (flow cytometry); type: cell-based, mouse; conditions: DI 250 μM 12 h, LPS 1 h
Description: Mouse Nfkbiz 3′UTR Lenti-reporter-GFP (#MT-m64048) vector or pLenti-UTR-GFR-Blank vector (#m014) were purchased from Applied Biological Materials. For lentiviral production transfection mixture of 1.5-mL of Opti-MEM medium (Invitrogen), 18 μg of psPAX2 (gift from Didier Trono, Addgene plasmid #12260), 13 μg of pCMV-V-SVG (gift from Bob Weinberg, Addgene plasmid #8454), 20 μg of lentiviral construct, and 105 μL of polyethylenimine (1 mg/mL; 25 kDa; linear form; Polysciences). The mixture was incubated at room temperature for 20 min and added to HEK-293T cells (ATCC) cultured in DMEM supplemented with 10% FBS, 2 mM L-glutamine and 100 U/mL penicillin-streptomycin in 150-cm2 tissue culture flask. 48 h later, virus-containing medium was filtered through […] pore-size cellulose acetate filters and used directly for BV2 transduction in the presence of polybrene (8 μg/mL, Millipore). […]
For ROS measurements, cells were treated with DI (250 μM), loaded with 10 μM CM-H2DCFDA (Invitrogen) at RT for 30 min in Hank's balanced salt solution (HBSS). After incubation, cell were rinsed with warm HBSS, harvested and directly analyzed. […] For Nfkbiz 3′UTR reporter analysis GFP signal was determined in live cells. […] Cells were acquired on CantoII or LSRII flow cytometers (Becton Dickinson), and data were analyzed with FlowJo v.9.5.2 software (Tree Star). […]

[1] = system: imiquimod-induced psoriasis-like skin inflammation; test: IMQ-induced psoriasis mouse model; type: in vivo; conditions: DI daily i.p.
Description: RNA from cultured cells was isolated using a Total RNA I kit (OMEGA). RNA from mouse ear skin was extracted using RNAeasy mini kit (Qiagen) after tissue disruption with sterile zirconium beads on a MagNA Lyser (Roche). Isolated RNA was reverse transcribed using AffinityScript Multi-Temp reverse transcriptase (Agilent Technologies) according to the manufacturer's protocol. Reactions were performed in 96-well plates using a SYBR Green PCR Master mix (Thermo Fisher Scientific) using a LightCycler® 96 or LightCycler® 480 (Roche Diagnostics). All assays were performed at least in duplicates, and reaction mixtures in 20 μL volumes (96-plate) or 10 μL volumes (384-plate) were processed under the following cycling conditions: initial 10 min denaturation at 95° C., followed by 40 cycles at 95° C. for 10 s, 60° C. for 1 min. Threshold cycle (CT) values for each sample were determined by automated threshold analysis. Expression levels of all mRNAs were normalized to reference gene Actb in BMDMs or to Rpl19 in mouse keratinocytes and tissue samples; to ACTB in human blood monocytes or RPLP0 in human keratinocytes. […] Average ear thickness in each sample was quantified from images obtained at the identical settings using ImageJ. Thickness at 5 equidistant places in each image was quantified and mean of these values was used to represent results in each mouse.

IκBζ = test: IL-17A-induced IκBζ in primary human keratinocytes (western blot); type: cell-based; conditions: DI 12 h, IL-17A 100 ng/ml
Description: Cells were lysed in RIPA Lysis Buffer System (Santa Cruz) and heat-denatured at 95° C. for 5 min in reducing sample buffer (BioRad). Proteins were separated on 4%-20% polyacrylamide gradient gels (BioRad) and transferred onto 0.45 μm pore size PVDF membranes (Millipore). Non-specific binding was blocked with 5% skim milk (or 5% BSA when phospho-proteins were analyzed), and membranes were probed with primary antibodies specific to Nrf2 (#12721), HO-1 (#70081), IκBζ (mouse specific, #93726), IκBζ(#9244), ATF3 (#D2Y5W), IRAK1 (#4504; sensitivity of IRAK1 detection diminishes upon IRAK1 K63 ubiquitination), phospho-IKK (Ser176/180, #2697), p62/SQSTM1 (#5114), phospho-eIF2α (Ser51, #9721), eIF2α (#5324) from Cell Signaling; GAPDH (sc-25778), IκBα (sc-1643), ATF3 (sc-188), SDHA (sc-166909) from Santa Cruz; NQO1 (ab28947) from Abeam, followed by incubation with anti-rabbit-HRP (1:10,000; sc-2030) or anti-mouse-HRP (1:10,000; sc-2031) from Santa Cruz and Clarity western ECL substrate (Bio-Rad). Membranes were exposed to X-Ray films (Research Products International Corp.) and developed using SRX-101A film processor (Konica Minolta). GAPDH run on the same blot was used as loading control. After scanning of original films image brightness of some blots was adjusted and bands were cropped using ImageJ. Densitometry was performed using ImageJ. […]

Ikb-ζ = test: IL17A-mediated Ikb-ζ induction in HaCat cells (western blot); type: cell-based, human; conditions: DI 12 h at non-toxic concentrations, IL17A 100 ng/ml up to 4 h

## C=C(CC(=O)OC)C(=O)OC [DI, dimethyl itaconate]
Nfkbiz 3′UTR
  Nfkbiz 3′UTR reporter GFP expression: did not affect expression of reporter gene GFP; also recorded: not due to regulation of Nfkbiz 3′UTR
[1]; IMQ 7 days, qPCR
  IκBζ target gene expression (Defb4, S100a9, S100a7a, Lcn2) in ear skin: markedly reduced
[1]; IMQ topically on ears 7 days
  psoriatic skin pathology: significant improvement of the psoriatic pathology; also recorded: no detectable skin changes
IκBζ
  IL-17-induced IκBζ induction: inhibited
Ikb-ζ
  IL17A-mediated Ikb-ζ induction: almost completely inhibited
